The source of these data is US10626140B2, “Prodrugs of 17β-HSD1-inhibitors” (FORENDO PHARMA LTD, priority 2014, dated 2020).

“Also recorded” adds a separate entry of the source. Like-named read-outs stand apart in the source and are kept apart here.

Broadly, the solubility is the dissolved amount per volume that the medium holds. Usually inhibition stands for the change of the read-out against control, counted positive when it falls.

A short description of one data set: Aqueous solubility test. Format: physicochemical. The note with it: for solubility: thermodynamic from solid. On the procedure:
The pH of the mixtures was held constant during the study. Excess amounts or a known amount of each component are added to 1 or 0.5 ml of buffer solution and the mixtures were stirred at rt for 48 hours or less, filtered (0.45 um Millipore) and analyzed by HPLC.

Data set [1] has as its target T1, recombinant human 17β-HSD2 (Homo sapiens, UniProt P37059).
T1 construct: made in house; host or cells: Sd9 (Sf9) insect cells, baculovirus (Bac to Bac Expression System)
T1 sequence (P37059 1-387): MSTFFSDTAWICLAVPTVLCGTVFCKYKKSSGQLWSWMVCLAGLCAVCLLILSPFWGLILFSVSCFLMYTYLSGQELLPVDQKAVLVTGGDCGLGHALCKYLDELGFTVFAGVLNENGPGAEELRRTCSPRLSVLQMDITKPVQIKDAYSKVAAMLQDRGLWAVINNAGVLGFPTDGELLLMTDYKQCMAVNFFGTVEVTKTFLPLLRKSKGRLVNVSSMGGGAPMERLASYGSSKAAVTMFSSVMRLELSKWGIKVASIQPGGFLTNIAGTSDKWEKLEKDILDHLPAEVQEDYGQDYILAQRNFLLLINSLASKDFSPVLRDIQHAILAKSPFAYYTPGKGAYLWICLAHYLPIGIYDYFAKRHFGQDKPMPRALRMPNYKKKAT
The data set is described as follows: Inhibition of recombinant human 17β-HSD2. The conditions noted are these: inhibitor 1 μM; 50 nM estradiol, 1 mM NADH, 30 min at RT. Format: biochemical. On the procedure:
17β-HSD2 Production and Isolation:
Similarly to 17β-HSD1 the Recombinant baculovirus was generated by the “Bac to Bac Expression System” (Invitrogen). Recombinant bacmid was transfected to Sd9 insect cells using “Cellfectin Reagent” (Invitrogen). 60 h later cells were harvested and supernatant were fractionated by the following protocol: • cells were dissolved into 40 ml of A-buffer (40 mM TRIS, pH8.0, 20% glycerol, 20 μM NAD, 0.4 mM PMSF, 150 mM NaCl, 0.5% dodecyl-β-maltoside+protease inhibitor cocktail) • cells were sonicated • lysate was incubated on ice for 15 min • lysate was centrifuged 5000 rpm 15 min, +4° C. • centrifugation of the supernatant 180 000 g 30 min, +4° C. • pellet was dissolved into 8 ml of A-buffer • not resuspended material was removed by centrifugation 5000 rpm 15 min, +4° C. • the clear supernatant was divided into 100 μl aliquots and were stored frozen until determination of enzymatic activity.
The amount of 17β-HSD2 was analysed by immunoblotting and total protein concentration of each extract batch was determined.
Assay—Inhibition of Recombinant Human 17β-HSD2:
Protein homogenate (4 μg/ml) was incubated in 20 mM KH2PO4 pH 8.5 with 50 nM estradiol (including 800 000 cpm/ml of ^3H-estradiol) and 1 mM […] for 30 min at RT, in the presence of the potential inhibitor at concentrations 1 μM or 0.1 μM. Inhibitor stock solutions were prepared in DMSO. Final concentration of DMSO was adjusted to 1% in all samples. The enzyme reaction was stopped by addition of 10% trichloroacetic acid (final concentration). Samples were centrifuged in a microtiter plate at 4000 rpm for 10 min. Supernatants were applied to reverse phase HPLC on a Waters Symmetry C18 column, equipped with a Waters Sentry Guard column. […] Radioactivity was monitored in the eluate by a Packard Flow Scintillation Analyzer. Total radioactivity for estrone and estradiol were determined in each sample and percent conversion of estradiol to estrone was calculated according to the following formula:
(§1) [formula] Percent inhibition was calculated flowingly: % inhibition=100−% conversion

The target in data set [2] is T2, recombinant human 17β-HSD1 (Homo sapiens, UniProt P14061).
T2 construct: made in house; host or cells: Sd9 (Sf9) insect cells, baculovirus (Bac to Bac Expression System)
T2 sequence (P14061 1-328): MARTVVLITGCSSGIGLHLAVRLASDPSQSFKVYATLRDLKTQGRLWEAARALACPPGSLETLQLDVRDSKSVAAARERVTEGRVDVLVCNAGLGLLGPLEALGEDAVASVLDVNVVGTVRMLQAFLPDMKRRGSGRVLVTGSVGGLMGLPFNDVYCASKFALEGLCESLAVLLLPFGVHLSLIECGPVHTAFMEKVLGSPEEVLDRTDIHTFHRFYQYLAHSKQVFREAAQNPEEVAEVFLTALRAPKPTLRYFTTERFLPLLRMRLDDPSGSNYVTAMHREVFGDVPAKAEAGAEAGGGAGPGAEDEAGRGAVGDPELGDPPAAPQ
Kind of data set: Inhibition of recombinant human 17β-HSD1. The conditions noted are these: inhibitor 1 μM; 30 nM estrone, 1 mM NADPH, 30 min at RT; read-out: 17β-HDS1 Inhibition % at 1 μM. Format: biochemical. The method, then: 17β-HSD1 Production and Isolation:
Recombinant baculovirus was generated by the “Bac to Bac Expression System” (Invitrogen). Recombinant bacmid was transfected to Sd9 insect cells using “Cellfectin Reagent” (Invitrogen). 60 h later cells were harvested; the microsomal fraction was isolated as described by Puranen, T. J., Poutanen, M. H., Peltoketo, H. E., Vihko, P. T. and Vihko, R. K. (1994) Site-directed mutagenesis of the putative active site of human 17β-hydroxysteroid dehydrogenase type 1. Biochem. J. 304: 289-293. Aliquots were stored frozen until determination of enzymatic activity.
Assay—Inhibition of Recombinant Human 17β-HSD1:
Protein homogenate (0.1 μg/ml) was incubated in 20 mM KH2PO4 pH 7.4 with 30 nM estrone (including 800 000 cpm/ml of ^3H-estrone) and 1 mM NADPH for 30 min at RT, in the presence of the potential inhibitor at concentrations 1 μM or 0.1 μM. Inhibitor stock solutions were prepared in DMSO. Final concentration of DMSO was adjusted to 1% in all samples. The enzyme reaction was stopped by addition of 10% trichloroacetic acid (final concentration). Samples were centrifuged in a microtiter plate at 4000 rpm for 10 min. Supernatants were applied to reverse phase HPLC on a Waters Symmetry C18 column, equipped with a Waters Sentry Guard column. Isocratic HPLC runs were performed at RT at a flow rate of 1 ml/min in acetonitrile:water 48:52 as running solvent. Radioactivity was monitored in the eluate by a Packard Flow Scintillation Analyzer. Total radioactivity for estrone and estradiol were determined in each sample and percent conversion of estrone to estradiol was calculated according to the following formula:
as §1

A short description of data set [3]: Metabolic stability assay. The conditions noted are these: human liver homogenate or microsomes. Format: in vitro ADME. On the procedure: The in vitro metabolic stability of the parent compounds was determined for exemplified compounds using human liver microsome and homogenate incubations. The incubation time points used with or without appropriate cofactors were 0 min and 60 min. Samples were collected at both time points and substrates were detected using LC/PDA/TOF-MS. In vitro metabolic stability (% remaining after 60 min in human liver homogenate or microsomes) of the compounds were calculated and the results are summarized in Table 4.

Regarding `CO/N=C1\C[C@@H](CCC(=O)Nc2ncc(C)s2)C2C3CCc4cc(OC(=O)CN(C)C)c(C(C)(C)C)cc4C3CC[C@]12C.Cl` (stereo partly drawn) [Compound 4a, (13S,15R)-2-(tert-butyl)-17[(E)-methoxyimino]-13-methyl-15-(3-((5-methylthiazol-2-yl)amino)-3-oxopropyl)-7,8,9,11,12,13,14,15,16,17-decahydro-6H-cyclopenta[a]phenanthren-3-yl dimethylglycinate hydrochloride], the “aqueous solubility (in words)” value in “Aqueous solubility test” (Table 5) was “improved aqueous solubility”. Further, the solubility in “Aqueous solubility test” (aqueous buffer, buffer at pH 7.4, rt, read-out: Aqueous solubility, buffer at pH 7.4) turned out to be 7.99 µg/mL.

In the case of `CO/N=C1\C[C@@H](CCC(=O)Nc2ncc(C)s2)C2C3CCc4cc(O)c(C(C)(C)C)cc4C3CC[C@]12C` (stereo partly drawn) [VIV-1, 3-{(13S,15R)-2-tert-Butyl-3-hydroxy-17-[(E)-methoxyimino]-13-methyl-7,8,9,11,12,13,14,15,16,17-decahydro-6H-cyclopenta[a]phenanthren-15-yl}-N-(5-methylthiazol-2-yl) propanamide], the inhibition at 1 µM in data set [1] was 14%; in data set [2] it was 86%. For the same molecule, the solubility in the data set “Aqueous solubility test” (pH 7.4, aqueous buffer) is < 0.52 µg/mL. Besides, the “In vitro metabolic stability, % remaining after 60 min” value in data set [3] amounted to 100%.

For `CO/N=C1\C[C@@H](CCC(=O)Nc2ncc(C)s2)C2C3CCc4cc(OP(=O)([O-])[O-])c(C(C)(C)C)cc4C3CC[C@]12C.[Na+].[Na+]` (stereo partly drawn) [Compound 1a], in the data set “Aqueous solubility test” (Table 5, disodium salt), the “aqueous solubility (in words)” value was “improved aqueous solubility; also recorded: significant aqueous solubility”. Moreover, the “Aqueous solubility, buffer at pH 7.4” value in “Aqueous solubility test” (buffer at pH 7.4, rt) is “over 32 mg/ml”.

`CO/N=C1\C[C@@H](CCC(=O)Nc2ncc(C)s2)C2C3CCc4cc(OCOP(=O)(O)O)c(C(C)(C)C)cc4C3CC[C@]12C` (stereo partly drawn) [Compound 15, (((13S,15R)-2-(tert-butyl)-17[(E)-methoxyimino]-13-methyl-15-(3-((5-methylthiazol-2-yl)amino)-3-oxopropyl)-7,8,9,11,12,13,14,15,16,17-decahydro-6H-cyclopenta[a]phenanthren-3-yl)oxy)methyl dihydrogen phosphate]: the “aqueous solubility (in words)” value in the data set “Aqueous solubility test” was “significant aqueous solubility”.

As to `CCO/N=C1\C[C@@H](CCC(=O)Nc2ncc(C)s2)C2C3CCc4cc(O)c(C(C)(C)C)cc4C3CC[C@]12C` (stereo partly drawn) [VIV-4, 3-{(13S,15R)-2-tert-Butyl-17-[(E)-ethoxyimino]-3-hydroxyl-13-methyl-7,8,9,11,12,13,14,15,16,17-decahydro-6H-cyclopenta[a]phenanthren-15-yl}-N-(5-methylthiazol-2-yl)propanamide], the inhibition at 1 µM in data set [1] was 8%; in data set [2], 89%.

With `CO/N=C1\C[C@@H](CCC(=O)Nc2ncc(C)s2)C2C3CCc4cc(OCOP(=O)(O)O)c(C(C)(C)C)cc4C3CC[C@]12C.[Na].[Na]` (stereo partly drawn) [Compound 15a, (((13S,15R)-2-(tert-butyl)-17[(E)-methoxyimino]-13-methyl-15-(3-((5-methylthiazol-2-yl)amino)-3-oxopropyl)-7,8,9,11,12,13,14,15,16,17-decahydro-6H-cyclopenta[a]phenanthren-3-yl)oxy)methyl dihydrogen phosphate disodium salt], the “aqueous solubility (in words)” value in the data set “Aqueous solubility test” (Table 5) is “improved aqueous solubility”. In addition, the solubility in “Aqueous solubility test” (buffer solution, aqueous buffer, buffer at pH 7.4, rt, read-out: Aqueous solubility, buffer at pH 7.4) was > 30000 µg/mL.

For `Cc1cnc(NC(=O)CC[C@@H]2CC(=O)[C@@]3(C)CCC4c5ccc(O)cc5CCC4C23)s1` (stereo partly drawn) [VII, reference compound], the “In vitro metabolic stability, % remaining after 60 min” value in data set [3] is given as 13%.

As to `Cc1cnc(NC(=O)CC[C@@H]2C/C(=N\O)[C@@]3(C)CCC4c5cc(C(C)(C)C)c(O)cc5CCC4C23)s1` (stereo partly drawn) [VIV-3, 3-{(13S,15R)-2-tert-Butyl-3-hydroxy-17-[(E)-hydroxyimino]-13-methyl-7,8,9,11,12,13,14,15,16,17-decahydro-6H-cyclopenta[a]phenanthren-15-yl}-N-(5-methylthiazol-2-yl)propanamide], the values for the inhibition at 1 µM in data set [1] and in data set [2] were 41% and 95%, respectively. For the same molecule, the “In vitro metabolic stability, % remaining after 60 min” value in data set [3] is listed as 100%.

On to `CO/N=C1\C[C@@H](CCC(=O)Nc2ncc(C)s2)C2C3CCc4cc(OP(=O)(O)O)c(C(C)(C)C)cc4C3CC[C@]12C` (stereo partly drawn) [Compound 1], for which the “aqueous solubility (in words)” value in the data set “Aqueous solubility test” (Table 5) is reported as “improved aqueous solubility”.
